{
  "source": "patent US20080070971A1",
  "about": "“Medical Use of Bilirubin and its Structural Analogues” (priority 2006, published 2008)",
  "key": {"HMG-CoA reductase": {"molecular_target": "T1, HMG-CoA reductase (Homo sapiens, UniProt P04035)", "T1 construct": "from tissue; host or cells: liver microsomes", "T1 sequence (P04035 1-888)": "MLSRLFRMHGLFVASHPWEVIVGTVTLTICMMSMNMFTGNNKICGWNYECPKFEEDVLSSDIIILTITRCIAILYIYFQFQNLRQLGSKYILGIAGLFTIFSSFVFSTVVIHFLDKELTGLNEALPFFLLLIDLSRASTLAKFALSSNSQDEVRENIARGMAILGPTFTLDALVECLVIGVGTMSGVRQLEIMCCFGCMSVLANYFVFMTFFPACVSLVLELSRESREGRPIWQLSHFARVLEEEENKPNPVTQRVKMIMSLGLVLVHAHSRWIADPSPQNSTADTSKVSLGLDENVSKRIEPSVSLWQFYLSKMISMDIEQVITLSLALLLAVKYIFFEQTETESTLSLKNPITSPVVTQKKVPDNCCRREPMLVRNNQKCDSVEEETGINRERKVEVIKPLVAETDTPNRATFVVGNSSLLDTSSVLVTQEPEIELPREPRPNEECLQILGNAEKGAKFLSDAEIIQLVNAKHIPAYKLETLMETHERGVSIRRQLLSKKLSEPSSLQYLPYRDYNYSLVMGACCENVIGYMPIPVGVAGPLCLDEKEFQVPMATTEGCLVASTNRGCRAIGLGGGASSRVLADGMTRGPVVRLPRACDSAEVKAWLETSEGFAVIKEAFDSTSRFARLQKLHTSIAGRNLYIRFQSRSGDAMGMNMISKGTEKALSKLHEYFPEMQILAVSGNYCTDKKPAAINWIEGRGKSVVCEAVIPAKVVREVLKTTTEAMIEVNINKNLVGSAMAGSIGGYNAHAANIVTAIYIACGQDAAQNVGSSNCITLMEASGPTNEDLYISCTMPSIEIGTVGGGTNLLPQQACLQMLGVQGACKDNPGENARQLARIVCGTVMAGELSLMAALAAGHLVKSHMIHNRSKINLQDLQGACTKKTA", "experiment": "HMG-CoA reductase assay in liver microsomes", "type": "biochemical", "conditions": "10 mg/L (FIG. 5)", "method": "Liver microsomes, which are used to investigate cholesterol metabolism, were prepared as follows. Liver was homogenized in 50 mM Tris HCl buffer (pH 7.4), containing 0.3 M sucrose, 10 mM DTT, and 10 mM EDTA. The homogenate was centrifuged at 20,000×g for 15 min, and the supernatant was centrifuged at 100,000×g for 60 min. The resulting microsomal fraction was suspended in 3 ml of 0.1 M potassium phosphate buffer (pH 7.4), containing 1 mM EDTA and 5 mM DTT. Aliquots were immediately frozen in liquid nitrogen and stored at −20° C. until analysis.\nAssay of HMG-CoA reductase. Microsomal suspensions of […], containing 5 mg protein, were preincubated for 5 min at 37° C. with […] of 0.1 M potassium phosphate buffer (pH 7.4), containing 1 mM EDTA and 12 mM glucose-6-phosphate. The assay was initiated by adding […] of cofactor-substrate solution (0.1 mM HMG-CoA, 3 mM MADPH, and 2 U/ml glucose-6-phosphate dehydrogenase). The incubation was performed at 37+ C. for 30 min and was terminated by the addition of […] of 1 M MaOH. After lactonization, the mevalonolactone was separated by thin layer chromatography. The eluate, which contained mevalonolactone, was collected in a scintillation vial. The radioactivity was then counted in a Packard 3320 scintillation spectrometer."}, "[1]": {"experiment": "Minimal erythema dose (MED) on skin exposed to solar radiation", "type": "in vivo, human", "from_the_text": "Healthy volunteers were exposed to solar radiation for evaluation of minimal erythema dose (MED)—a direct sign of acute inflammation, without and with pretreatment of bilirubin (dissolved in dimethyl sulfoxide)."}, "[2]": {"tested_on": "liver cholesterol esterase", "experiment": "Cholesterol esterification by liver cholesterol esterase", "type": "biochemical"}, "[3]": {"tested_on": "malate dehydrogenase (MDH)", "experiment": "Malate dehydrogenase inhibition", "type": "biochemical", "conditions": "concentration equivalent to the moderate level of serum bilirubin (FIG. 7)"}, "[4]": {"molecular_target": "T2, cholesterol esterase (CHE) (Homo sapiens, UniProt P19835)", "T2 sequence (P19835 21-753)": "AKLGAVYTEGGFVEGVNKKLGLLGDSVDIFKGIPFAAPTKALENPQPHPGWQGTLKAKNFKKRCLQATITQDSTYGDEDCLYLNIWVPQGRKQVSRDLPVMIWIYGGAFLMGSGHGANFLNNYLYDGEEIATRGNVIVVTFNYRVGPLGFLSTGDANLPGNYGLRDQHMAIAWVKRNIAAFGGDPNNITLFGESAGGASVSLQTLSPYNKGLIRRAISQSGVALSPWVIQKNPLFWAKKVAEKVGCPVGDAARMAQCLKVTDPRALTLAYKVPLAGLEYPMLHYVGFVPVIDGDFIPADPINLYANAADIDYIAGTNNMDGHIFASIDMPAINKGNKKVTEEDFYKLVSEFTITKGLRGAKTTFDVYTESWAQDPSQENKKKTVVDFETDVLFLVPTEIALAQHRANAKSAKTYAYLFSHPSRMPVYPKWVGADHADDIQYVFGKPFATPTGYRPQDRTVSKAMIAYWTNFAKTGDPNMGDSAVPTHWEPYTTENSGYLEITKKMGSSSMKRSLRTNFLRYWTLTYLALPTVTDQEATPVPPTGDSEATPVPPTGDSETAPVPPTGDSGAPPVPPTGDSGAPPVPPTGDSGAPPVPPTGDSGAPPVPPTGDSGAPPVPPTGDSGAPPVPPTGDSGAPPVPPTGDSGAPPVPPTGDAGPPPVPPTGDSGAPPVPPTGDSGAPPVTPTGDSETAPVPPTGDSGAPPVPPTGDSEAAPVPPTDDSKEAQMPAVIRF", "experiment": "Cholesterol esterase inhibition", "type": "biochemical", "conditions": "bilirubin concentration of about 10 mg/L; pH=7.2 (FIG. 1)"}, "cyclooxygenase (COX)": {"tested_on": "cyclooxygenase (COX)", "experiment": "Cyclooxygenase (COX) inhibition", "type": "biochemical, human", "method": "The activity of COX was determined by the procedure described in Assay Design's Enzyme Immunometric Assay (EIA) kit (Assay Design Inc., TiterZyme EIA cat.#900-094). Briefly, the kit uses a monoclonal antibody to human COX-II immobilized on a microtiter plate to bind the human COX in the standard or sample. After a short incubation the excess standard or sample is washed out and a rabbit polyclonal antibody to human COX labeled with the enzyme. Horseradish peroxidase is added. This labeled antibody binds to the human COX captured on the plate. After a short incubation the excess labeled antibody is washed out and substrate is added. The substrate reacts with the labeled antibody bound to the human COX captured on the plate. After a short incubation, the enzyme reaction is stopped and the color generated is read at 450 nm. The measured optical density is directly proportional to the concentration of human COX.\nPurified cyclooxygenases (COX) were obtained from Kayman Chemical Company and used to examine the inhibitory effect of bilirubin with arachidonic acid as the substrate. High purity of bilirubin (SigmaAldrich #B4126), biliverdin (Frontier Scientific Inc., Cat. B655-9) and hemin (SigmaAldrich, #51280) were used as received."}},
  "data": [
    {"smiles": "C=CC1=C(C)C(=Cc2[nH]c(Cc3[nH]c(C=C4NC(=O)C(C)=C4C=C)c(C)c3CCC(=O)O)c(CCC(=O)O)c2C)NC1=O", "note": "[bilirubin, 2,7,13,17-tetramethyl-1,19-dioxo-3,18-divinyl-1,10,19,22,23,24-hexahydro-21H-biline-8,12-dipropanoic acid]", "values": [
      {"measurement": "reduction of HMG-CoA reductase activity", "setting": "HMG-CoA reductase", "value": "≤ 60", "unit": "%"},
      {"measurement": "skin inflammation after UV exposure", "setting": "[1]; bilirubin treated skin areas", "value": "no sign of inflammation"},
      {"measurement": "minimal erythema dose (MED)", "setting": "[1]; topical pretreatment with bilirubin in DMSO (FIG. 8)", "value": "increased"},
      {"measurement": "inhibition of cholesterol esterification by liver cholesterol esterase", "setting": "[2]", "value": "inhibits"},
      {"measurement": "inhibition of malate dehydrogenase", "setting": "[3]", "value": "strongly suppressed"},
      {"measurement": "inhibition at 10 µg/mL", "setting": "[4]", "value": "~50", "unit": "%"},
      {"measurement": "inhibition of the COX activity", "setting": "cyclooxygenase (COX); 10 mg/L bilirubin (FIG. 3)", "value": "Up to 70%"},
      {"measurement": "reducing COX activity (comparison)", "setting": "cyclooxygenase (COX); concentration of 10 mg/L (FIG. 4)", "value": "effective in reducing COX activity"}
    ]}
  ]
}
